The source of these data is PMC8287630 (Journal for Immunotherapy of Cancer, 2021).

Series [1] has as its system several human cancer cell lines. The conditions noted are these: cited from earlier work.
A short description of series [2]: Pharmacokinetic study in rats. Type of series: in vivo. As to conditions: male, SD, rat, plasma, po, 30 mg/kg. On the procedure:
(§1) Pharmacokinetic studies of free CHA and CHA-SME were performed using SD rats and beagle dogs. […] At 5, 15, 30 min, 1, 2, 4, 6, and 8 hours, approximately 0.2 mL of blood was collected from the orbital into an anticoagulant tube and centrifuged at 4500 rpm for 10 min to separate the plasma. All plasma samples were stored frozen at –80°C until LC-MS/MS analysis (TSQ Quantum Access MAX; Thermo Fisher Scientific, Waltham, MA, USA).

Series [3] in a line: In vivo safety evaluation (body weight, hematology, serum biochemistry, histopathology). Set-up: species or system mice. The conditions noted are these: for histopathology of heart, liver, spleen, lung and kidney: HE staining, versus control group; for animal behavior and body weight after administration: tumor-bearing mice. On the procedure:
The in vivo safety of CHA-SME was evaluated based on body weight, hematological examination, and histopathological examination in mice. Body weight was monitored throughout the experiment. At the end of the in vivo antitumor experiment, peripheral blood was collected for hematological examination using an automatic hematology analyzer (MEK-7222 K; Nihon Kohden, Tokyo, Japan). Additionally, the serum was separated to detect […] (ALT), […] (AST), blood urea nitrogen (BUN), and creatinine (CRE) to evaluate hepatic and renal functions using an automatic biochemical analyzer (Accute TBA-40FR; TOSHIBA, Kawasaki, Japan). Heart, liver, spleen, lung, kidney, stomach, small intestine, and MLNs were collected, fixed in 4% PFA, and subjected to histopathological examination using HE staining.

The subject of a further series is DCs and T cells. Nature of the series: Immunomodulatory effects in vivo (immunophenotype of DCs and T cells, cytokines). As to conditions: CHA-SME 35 mg/kg; versus control treatment. Further details: species or system mice. On the procedure:
The in vivo immunomodulatory effects of CHA-SME were evaluated by analyzing the immunophenotype of LYM and cytokine production. LYM (DCs and T cells) infiltrated into the blood, tumor, and other important immune organs (MLNs and spleen) were quantitatively analyzed by flow cytometry. Fresh tumors were cut into small pieces and digested at 37°C for 40 min. Fresh MLNs and spleens were cut into small pieces and ground into single-cell suspensions. The cells were collected, washed, and incubated with different fluorescein-conjugated antibodies. The cell suspensions were filtered through 400-mesh sieves after two washes and analyzed by flow cytometry ([…] Biosciences, San Diego, California, USA). For immunophenotype analysis of T cells, CD45 +CD3+CD44+CD62L+cells and CD45 +CD3+CD44+CD62 L-cells were considered to be central memory T cells (TCM) and effector memory T cells (TEM), respectively. For DC maturation analysis, the expression levels of MHC I, CD40, CD80, and CD86 on DCs were examined. Different cytokines (IFN-γ, tumor necrosis factor α (TNF-α), and IL-10) in tumors, MLNs, spleens, and blood were quantitatively determined using bead-based LEGENDplex kits following the manufacturer's protocol.

Series [4] is described as follows: Pharmacokinetic study in beagle dogs. As to conditions: dog, plasma, 30 mg/kg. Type of series: in vivo. On the procedure: as §1
The test system of a further series is G422 glioma. Nature of the series: In vivo antitumor efficacy, subcutaneous G422 glioma model. Further details: species or system ICR mice. The conditions noted are these: 14 days; CHA 20 mg/kg i.p., CHA-SME 35 mg/kg p.o. The method, then:
A subcutaneous glioma tumor model was established in female ICR mice, as mentioned above. […] The positive control group was orally administered TMZ (50 mg/kg) for 5 days. The blank CHA-SME group was orally administered with blank CHA-SME for 14 days. At the end of the experiment, all mice were euthanized, and the tumors were collected, weighed, and photographed. […] The positive control group was orally administered TMZ (50 mg/kg) for 5 days. […] The CHA-SME group was orally administered CHA-SME (35 mg/kg) for 14 days. At the end of the experiment, all mice were euthanized, and the tumors were collected, weighed, and photographed.

The format of series [5] is in vivo. As to conditions: mice, oral 1 mg/kg, 30 min; figure 5C. The method, then: To evaluate the uptake of CHA-SME in the intestinal tissues and MLNs, Cou-6-labeled CHA-SME were orally administered to mice at 1 mg/kg. Thirty minutes later, the mice were sacrificed and intestinal segments (including duodenum, jejunum, ileum, and colon,~1 cm each) and MLNs were surgically collected, placed in embedding compound, frozen in liquid nitrogen, and dissected. The slices were fixed with 4% PFA, stained with TRITC phalloidin and DAPI, and imaged using CLSM. Additionally, MLNs were ground into single-cell suspensions and the fluorescence intensity was determined by flow cytometry.
To investigate the lymphatic transport of CHA-SME in vivo, mice were i.p. administered 3.0 mg/kg cycloheximide to block chylomicron flow.[37 38] One-hour postinjection, DiR-labeled or Cou-6-labeled CHA-SME was orally administered at 1.0 mg/kg. The mice were examined as described above.

For another series, the system named is Caco-2 cell monolayers. Nature of the series: Transport within Caco-2 cell monolayers (CLSM). As to conditions: 4 hours incubation. Type of series: cell-based, human. On the procedure: To establish an in vitro Caco-2 cell monolayer model, Caco-2 cells were plated in a 12-well Transwell plate with a 0.4 µm pore polycarbonate membrane insert (Corning, Corning, New York, USA). A total of 0.5 mL of cell culture medium containing 2×10^5 cells was added in the upper compartment of each Transwell insert, and 1.5 mL of cell culture medium was added in the lower compartment. The culture medium in both compartments was changed every other day in the initial 14 days and every day in the following 7 days. After 21 days of culture, transepithelial electrical resistance (TEER) was measured using Millicell-ERS (Millipore, Billerica, Massachusetts, USA) to monitor cell monolayer integrity. A TEER value exceeding 800 Ω was selected for subsequent transepithelial transport study of CHA-SME.
For the transepithelial transport study of CHA-SME, Caco-2 cell monolayers cultured in Transwell plates were incubated with Cou-6-labeled CHA-SME for 4 hours at 37°C. Then, the cells were washed thrice with cold PBS, and the polycarbonate membrane with cultured cells was carefully cut from the insert. After fixation with 4% PFA and staining with TRITC phalloidin and DAPI, the excised membrane was placed in a glass slide and examined by CLSM.
(Caco-2 monolayers are a common model of the intestinal barrier.)

What is called AUC is concentration integrated over time. Usually bioavailability stands for the share of a dose that reaches the circulation, judged against a reference dose that is usually intravenous. For the compound `O=C(/C=C/c1ccc(O)c(O)c1)O[C@@H]1C[C@](O)(C(=O)O)C[C@@H](O)[C@H]1O` [CHA, Chlorogenic acid], the “effective dose for inhibition of cell proliferation / induction of apoptosis” value in series [1] is recorded as “higher than 100 µM”. For the same compound, the exposure (AUC) in series [2] was found to be 35.8 ± 10.9 ng·h/mL. Moreover, in series [3], the “histopathology of heart, liver, spleen, lung and kidney” value was “no obvious organ lesion”; the “animal behavior and body weight after administration” value is “tolerated the regimens well”. Also, the “proportion of infiltrating CD3+, CD4+ and CD8+ T cells in brain glioma tissues” value in the series with DCs and T cells was “no significant difference”. Also, in series [4] (oral, read-out: oral absolute bioavailability), the bioavailability turned out to be 5.85%. In addition, the AUC in series [4] (po, read-out: AUC Mean±SD) came to 692 ± 179 ng·h/mL. Further, the tumor growth result with G422 glioma is listed as “able to inhibit tumor growth”.
With `CCN(CC)c1ccc2cc(-c3nc4ccccc4s3)c(=O)oc2c1` [Cou-6, Coumarin-6], in series [5], the “percentage of Cou-6-positive lymphocytes in MLNs” value is recorded as 7.2%. The “green fluorescence within Caco-2 cell monolayers” value with Caco-2 cell monolayers is on record as “negligible green fluorescence”.
As to `Cn1nnc2c(C(N)=O)ncn2c1=O` [TMZ, temozolomide], in series [3], the “histopathology of heart, liver, spleen, lung and kidney” value was “a certain degree of fragmentation and pathological changes in the heart and spleen”; the “animal behavior and body weight after administration” value was “marked weight loss and sparse hair”.
